Test [1] deals with T1, human α1G T-type channels (Homo sapiens, UniProt O43497).
T1 construct: expressed in transfected cells; host or cells: HEK 293
In words: T-type calcium channel block, whole cell patch clamp in HEK cells (α1G). The conditions noted are these: HEK cells, patch clamp, mainly non-inactivated protocol; values above 10 μM shown as 10 μM, below 0.30 μM shown as 0.30 μM; read-out: T-type Calcium Channel Block α1G IC50. The test is classed as cell-based.

The target of test [2] is T2, human α1H T-type channels (Homo sapiens, UniProt O95180).
T2 construct: expressed in transfected cells; host or cells: HEK 293
As to the kind of experiment: T-type calcium channel block, whole cell patch clamp in HEK cells (α1H). The test is classed as cell-based. The conditions noted are these: HEK cells, patch clamp, mainly non-inactivated protocol; values above 10 μM shown as 10 μM; read-out: T-type Calcium Channel Block α1H IC50.

Among the data in patent US8569344B2, “N-piperidinyl acetamide derivatives as calcium channel blockers” (Zalicus Pharmaceuticals Ltd., priority 2008, dated 2013) are IC50 values, retold here.

SMILES strings stand for the structures.

T2 sequence (O95180 whole entry): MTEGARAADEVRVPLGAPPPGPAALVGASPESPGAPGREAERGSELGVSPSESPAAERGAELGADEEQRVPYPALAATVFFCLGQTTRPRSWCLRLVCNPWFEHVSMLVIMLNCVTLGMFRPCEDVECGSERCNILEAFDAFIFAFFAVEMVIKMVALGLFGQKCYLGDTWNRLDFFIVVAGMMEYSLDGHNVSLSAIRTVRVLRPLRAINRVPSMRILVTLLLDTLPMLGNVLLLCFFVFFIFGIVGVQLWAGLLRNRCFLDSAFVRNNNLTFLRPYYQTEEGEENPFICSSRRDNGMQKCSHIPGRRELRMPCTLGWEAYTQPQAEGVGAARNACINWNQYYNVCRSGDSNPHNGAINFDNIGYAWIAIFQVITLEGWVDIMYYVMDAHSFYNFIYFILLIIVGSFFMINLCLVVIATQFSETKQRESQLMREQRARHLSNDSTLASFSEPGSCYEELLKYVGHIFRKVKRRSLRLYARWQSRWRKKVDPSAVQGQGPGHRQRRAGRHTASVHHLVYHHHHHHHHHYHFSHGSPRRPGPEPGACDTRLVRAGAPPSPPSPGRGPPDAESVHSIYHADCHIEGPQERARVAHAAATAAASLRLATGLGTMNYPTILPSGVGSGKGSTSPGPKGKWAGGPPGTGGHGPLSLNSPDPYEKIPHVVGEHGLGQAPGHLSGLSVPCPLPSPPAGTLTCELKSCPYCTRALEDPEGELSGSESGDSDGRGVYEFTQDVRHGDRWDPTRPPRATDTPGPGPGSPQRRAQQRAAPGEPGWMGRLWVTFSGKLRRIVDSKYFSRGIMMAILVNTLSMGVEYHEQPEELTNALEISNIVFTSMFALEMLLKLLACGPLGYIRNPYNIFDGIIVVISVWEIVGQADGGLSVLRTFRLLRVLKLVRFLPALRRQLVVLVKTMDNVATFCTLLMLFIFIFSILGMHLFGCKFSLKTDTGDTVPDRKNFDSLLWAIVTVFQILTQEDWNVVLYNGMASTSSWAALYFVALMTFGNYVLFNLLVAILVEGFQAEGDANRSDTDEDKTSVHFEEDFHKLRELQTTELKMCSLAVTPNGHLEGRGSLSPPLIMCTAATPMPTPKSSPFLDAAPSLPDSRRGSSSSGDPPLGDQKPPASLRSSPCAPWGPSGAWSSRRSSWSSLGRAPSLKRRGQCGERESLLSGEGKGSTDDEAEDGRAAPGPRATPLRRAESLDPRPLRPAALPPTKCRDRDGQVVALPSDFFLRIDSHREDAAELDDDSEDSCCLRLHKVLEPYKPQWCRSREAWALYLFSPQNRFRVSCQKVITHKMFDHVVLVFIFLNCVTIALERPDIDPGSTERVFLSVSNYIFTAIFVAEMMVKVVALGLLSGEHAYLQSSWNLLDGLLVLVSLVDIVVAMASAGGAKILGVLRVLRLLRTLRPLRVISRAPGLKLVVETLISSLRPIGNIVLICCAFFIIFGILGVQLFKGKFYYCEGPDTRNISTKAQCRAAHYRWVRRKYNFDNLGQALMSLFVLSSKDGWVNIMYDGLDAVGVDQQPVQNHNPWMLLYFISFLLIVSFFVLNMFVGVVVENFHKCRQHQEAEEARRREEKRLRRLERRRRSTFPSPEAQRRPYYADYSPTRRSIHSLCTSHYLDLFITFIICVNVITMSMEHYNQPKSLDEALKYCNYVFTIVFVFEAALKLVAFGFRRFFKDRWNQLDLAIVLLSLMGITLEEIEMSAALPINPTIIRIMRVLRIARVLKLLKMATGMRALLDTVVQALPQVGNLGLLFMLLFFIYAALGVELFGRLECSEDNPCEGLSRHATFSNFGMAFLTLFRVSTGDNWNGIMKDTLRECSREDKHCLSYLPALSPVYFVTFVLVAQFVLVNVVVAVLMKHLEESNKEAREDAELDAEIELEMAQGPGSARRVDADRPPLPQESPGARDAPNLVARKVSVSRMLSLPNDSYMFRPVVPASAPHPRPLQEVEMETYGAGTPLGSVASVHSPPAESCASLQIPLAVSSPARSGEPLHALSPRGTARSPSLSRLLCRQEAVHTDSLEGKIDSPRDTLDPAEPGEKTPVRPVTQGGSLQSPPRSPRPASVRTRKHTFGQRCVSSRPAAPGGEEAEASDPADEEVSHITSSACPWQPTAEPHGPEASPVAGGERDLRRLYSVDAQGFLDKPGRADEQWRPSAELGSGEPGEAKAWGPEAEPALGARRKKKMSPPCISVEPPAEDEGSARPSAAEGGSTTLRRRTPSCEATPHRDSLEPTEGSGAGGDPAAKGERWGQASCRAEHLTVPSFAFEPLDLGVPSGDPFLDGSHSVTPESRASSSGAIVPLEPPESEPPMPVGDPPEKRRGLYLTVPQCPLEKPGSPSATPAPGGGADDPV
T1 sequence (O43497 whole entry): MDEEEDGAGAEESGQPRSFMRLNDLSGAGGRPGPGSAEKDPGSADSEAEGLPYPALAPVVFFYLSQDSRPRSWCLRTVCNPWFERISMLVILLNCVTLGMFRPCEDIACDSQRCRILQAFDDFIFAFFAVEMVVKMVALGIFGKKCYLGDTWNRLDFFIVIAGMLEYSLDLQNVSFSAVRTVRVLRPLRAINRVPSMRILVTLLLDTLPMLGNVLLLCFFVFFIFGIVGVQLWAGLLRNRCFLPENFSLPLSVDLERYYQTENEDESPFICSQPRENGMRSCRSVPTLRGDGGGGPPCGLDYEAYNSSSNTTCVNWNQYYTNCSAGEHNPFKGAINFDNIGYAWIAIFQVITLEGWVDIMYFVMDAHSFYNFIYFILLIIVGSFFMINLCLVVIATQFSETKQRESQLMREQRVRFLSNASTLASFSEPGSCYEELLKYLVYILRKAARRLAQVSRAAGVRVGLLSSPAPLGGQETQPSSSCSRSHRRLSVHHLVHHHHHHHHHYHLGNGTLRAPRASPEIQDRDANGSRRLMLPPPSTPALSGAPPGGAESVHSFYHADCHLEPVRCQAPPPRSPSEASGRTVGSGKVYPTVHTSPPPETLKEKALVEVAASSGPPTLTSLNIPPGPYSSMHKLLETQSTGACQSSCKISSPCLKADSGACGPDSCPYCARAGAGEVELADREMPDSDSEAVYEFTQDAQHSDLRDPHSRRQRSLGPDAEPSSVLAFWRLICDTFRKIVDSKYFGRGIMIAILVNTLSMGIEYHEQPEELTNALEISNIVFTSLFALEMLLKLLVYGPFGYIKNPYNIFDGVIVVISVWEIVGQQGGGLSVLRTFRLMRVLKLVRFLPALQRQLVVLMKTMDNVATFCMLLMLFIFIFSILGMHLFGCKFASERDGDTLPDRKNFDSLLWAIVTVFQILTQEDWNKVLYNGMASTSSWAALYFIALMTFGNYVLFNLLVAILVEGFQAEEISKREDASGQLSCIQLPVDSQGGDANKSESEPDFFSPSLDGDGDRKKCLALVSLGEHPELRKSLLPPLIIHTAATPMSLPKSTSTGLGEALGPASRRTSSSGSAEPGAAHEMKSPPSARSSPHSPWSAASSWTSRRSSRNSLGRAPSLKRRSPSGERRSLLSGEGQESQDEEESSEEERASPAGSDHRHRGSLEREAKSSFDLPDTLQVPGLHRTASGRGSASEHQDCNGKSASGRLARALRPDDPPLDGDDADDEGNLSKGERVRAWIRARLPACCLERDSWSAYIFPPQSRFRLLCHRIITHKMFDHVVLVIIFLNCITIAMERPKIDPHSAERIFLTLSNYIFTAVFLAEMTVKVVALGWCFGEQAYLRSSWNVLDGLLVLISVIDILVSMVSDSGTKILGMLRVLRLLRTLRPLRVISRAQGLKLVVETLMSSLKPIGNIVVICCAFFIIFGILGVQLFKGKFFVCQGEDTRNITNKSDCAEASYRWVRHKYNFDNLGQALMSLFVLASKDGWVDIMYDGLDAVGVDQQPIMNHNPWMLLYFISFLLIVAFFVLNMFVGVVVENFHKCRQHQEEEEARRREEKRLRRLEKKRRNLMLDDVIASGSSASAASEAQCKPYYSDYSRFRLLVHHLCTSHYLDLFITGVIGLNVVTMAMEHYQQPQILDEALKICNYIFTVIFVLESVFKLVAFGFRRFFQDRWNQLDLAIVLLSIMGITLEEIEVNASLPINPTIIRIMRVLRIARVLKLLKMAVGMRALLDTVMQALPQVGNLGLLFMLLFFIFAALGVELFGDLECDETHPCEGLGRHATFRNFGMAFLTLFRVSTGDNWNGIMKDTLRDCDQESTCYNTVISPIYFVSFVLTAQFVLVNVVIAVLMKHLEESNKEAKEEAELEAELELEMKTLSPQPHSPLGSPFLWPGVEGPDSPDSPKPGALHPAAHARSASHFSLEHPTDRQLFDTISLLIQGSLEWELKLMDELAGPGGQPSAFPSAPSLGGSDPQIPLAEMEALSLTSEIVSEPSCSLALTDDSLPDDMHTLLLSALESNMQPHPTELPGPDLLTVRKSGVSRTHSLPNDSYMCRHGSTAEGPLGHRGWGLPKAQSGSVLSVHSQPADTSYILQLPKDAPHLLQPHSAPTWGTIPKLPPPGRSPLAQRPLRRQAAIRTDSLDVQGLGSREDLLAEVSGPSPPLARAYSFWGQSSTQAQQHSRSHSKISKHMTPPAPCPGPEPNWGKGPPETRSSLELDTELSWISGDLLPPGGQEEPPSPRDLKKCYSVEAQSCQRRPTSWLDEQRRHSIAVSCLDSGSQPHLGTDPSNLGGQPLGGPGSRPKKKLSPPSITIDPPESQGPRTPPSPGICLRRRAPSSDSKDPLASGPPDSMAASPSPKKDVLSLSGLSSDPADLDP

Consider `COCC(C)(C)NC(=O)CN1CCC(CNC(=O)c2cc(F)cc(C(F)(F)F)c2)CC1` [Compound 564, 3-fluoro-N-((1-(2-(1-methoxy-2-methylpropan-2-ylamino)-2-oxoethyl)piperidin-4-yl)methyl)-5-(trifluoromethyl)benzamide], for which the IC50 in test [1] is < 300 nM; in test [2], 100 nM.
The corresponding values for `CC(C)(C)S(=O)(=O)NCCN1CCC(CNC(=O)c2cc(F)cc(Cl)c2)CC1` [Compound 565, 3-chloro-N-((1-(2-(1,1-dimethylethylsulfonamido)ethyl)piperidin-4-yl)methyl)-5-fluoro-benzamide] are 310 nM and 220 nM.
Consider `COCC(C)(C)NC(=O)CN1CCC(CNC(=O)c2cccc(Cl)c2)CC1` [Compound 566, 3-chloro-N-((1-(2-(1-methoxy-2-methylpropan-2-ylamino)-2-oxoethyl)piperidin-4-yl)methyl) benzamide], for which the IC50 in test [1] is 760 nM; in test [2], 820 nM.
The corresponding values for `O=C(NCC1CCN(CCN2C(=O)NC3(CCCCC3)C2=O)CC1)c1cc(F)cc(C(F)(F)F)c1` [Compound 568, N-((1-(2-(2,4-dioxo-1,3-diazaspiro[4.5]decan-3-yl)ethyl)piperidin-4-yl)methyl)-3-fluoro-5-(trifluoromethyl)benzamide] are 1360 nM and 890 nM.
The corresponding values for `NC1(C(=O)NCCN2CCC(CNC(=O)c3cc(F)cc(C(F)(F)F)c3)CC2)CCCCC1` [Compound 570, N-((1-(2-(1-aminocyclohexanecarboxamido)ethyl)piperidin-4-yl)methyl)-3-fluoro-5-(trifluoromethyl)benzamide] are 2060 nM and 2360 nM.
The corresponding values for `NC1(C(=O)NCCN2CCC(CNC(=O)c3cc(F)cc(C(F)(F)F)c3)CC2)CCC1` [Compound 571, N-((1-(2-(1-aminocyclobutanecarboxamido)ethyl)piperidin-4-yl)methyl)-3-fluoro-5-(trifluoromethyl) benzazmide] are > 10000 nM and > 10000 nM.
For `CC(C)(C)OC(=O)NC1(C(=O)NCCN2CCC(CNC(=O)c3cc(F)cc(C(F)(F)F)c3)CC2)CCC1` [Compound 572, tert-buyl 1-(2-(4-((3-fluoro-5-(trifluoromethyl)benzamido)methyl)piperidin-1-yl)ethylcarbamoyl) cyclobutylcarbamate], the half-maximal inhibitory concentration (IC50) was found to be 490 nM in test [1] and 1560 nM in test [2].
For `CC(C)(C)S(=O)(=O)NCCN1CCC(CNC(=O)c2cccc(Cl)c2)CC1` [Compound 573, 3-chloro-N-((1-(2-(1,1-dimethylethylsulfonamido)ethyl)piperidin-4-yl)methyl)benzamide], in that order: 1270 nM and 1010 nM.
`Cc1cc(F)cc(C(=O)NCC2CCN(CCNS(=O)(=O)C(C)(C)C)CC2)c1` [Compound 575, N-((1-(2-(1,1-dimethylethylsulfonamido)ethyl)piperidin-4-yl)methyl)-3-fluoro-5-methylbenzamide]: the results for the half-maximal inhibitory concentration (IC50) in test [1] and in test [2] were 1250 nM and 1040 nM, respectively.
For `COc1cc(OC)cc(C(=O)NCC2CCN(CCNS(=O)(=O)C(C)(C)C)CC2)c1` [Compound 576, N-((1-(2-(1,1-dimethyethylsulfonamido)ethyl)piperidin-4-yl)methyl)-3,5-dimethoxybenzamide], in that order: 430 nM and 930 nM.
On to `CN(C(=O)CN1CCC(CNC(=O)c2cc(F)cc(Cl)c2)CC1)C(C)(C)C(F)(F)F` [Compound 579, 3-chloro-5-fluoro-N-((1-(2-(methyl (1,1,1-trifluoro-2-methylpropan-2-yl)amino)-2-oxoethyl)piperidin-4-yl)methyl)benzamide], for which the IC50 in test [1] was < 300 nM; in test [2], 50 nM.
The corresponding values for `COc1cc(F)cc(C(=O)NCC2CCN(CC(=O)N(C)C3(C)CCC3)CC2)c1` [Compound 584, 3-fluoro-5-methoxy-N-((1-(2-(methyl(1-methylcyclobutyl)amino)-2-oxoethyl)piperidin-4-yl)methyl)benzamide] are < 300 nM and 280 nM.
